How the values were obtained:
Test in all cases: Bliss excess, mean over the matrix (fraction); higher = more synergy
[1] = test system: JJN-3 (Plasma Cell Myeloma)
Outline: (§1)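 Cell lines grown in DMEM/F12 or RPMI with 10% FBS were plated in 1536-well plates and held 24 hours at 37°C, 5% CO2 before 72 hours of exposure to two-drug dose matrices, with DMSO typically at 0.2%. CellTiter-Glo 2.0 luminescence gave viability, which was converted to inhibition. Vehicle wells were set to 0 and blank wells to 1. Combination Emax is the second-highest inhibition in the matrix, and Bliss excess is the observed combination effect minus the expected EA + EB − EA·EB, where EA and EB are the single-agent effects.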

SK-MEL-24 (Melanoma) = test system: SK-MEL-24 (Melanoma)
Outline: as §1

[2] = test system: BT-474 (Breast Carcinoma)
Outline: as §1

[3] = test system: NCI-H1975 (Lung Adenocarcinoma)
Outline: as §1

[4] = test system: L-363 (Plasma Cell Myeloma)
Outline: as §1

[5] = test system: C2BBe1 (Colorectal Carcinoma)
Outline: as §1

[6] = test system: TOV-21G (Ovarian Carcinoma)
Outline: as §1

[7] = test system: NCI-H1048 (Small Cell Lung Carcinoma)
Outline: as §1

[8] = test system: JURL-MK1 (Chronic Myelogenous Leukemia)
Outline: as §1

[9] = test system: HT-3 (Cervical Carcinoma)
Outline: as §1

[10] = test system: TK (B-Cell Non-Hodgkin's Lymphoma)
Outline: as §1

[11] = test system: CAL-85-1 (Breast Carcinoma)
Outline: as §1

[12] = test system: GRANTA-519 (B-Cell Non-Hodgkin's Lymphoma)
Outline: as §1

A375 (Melanoma) = test system: A375 (Melanoma)
Outline: as §1

[13] = test system: NCI-H835 (Other Solid Carcinomas)
Outline: as §1

[14] = test system: KNS-62 (Squamous Cell Lung Carcinoma)
Outline: as §1

[15] = test system: MRK-nu-1 (Breast Carcinoma)
Outline: as §1

[16] = test system: NCI-H1648 (Lung Adenocarcinoma)
Outline: as §1

[17] = test system: NCI-H2009 (Lung Adenocarcinoma)
Outline: as §1

[18] = test system: IGROV-1 (Ovarian Carcinoma)
Outline: as §1

SMILES	Bliss excess [1]	Bliss excess (SK-MEL-24 (Melanoma))	Bliss excess [2]	Bliss excess [3]	Bliss excess [4]	Bliss excess [5]	Bliss excess [6]	Bliss excess [7]	Bliss excess [8]	Bliss excess [9]	Bliss excess [10]	Bliss excess [11]	Bliss excess [12]	Bliss excess (A375 (Melanoma))	Bliss excess [13]	Bliss excess [14]	Bliss excess [15]	Bliss excess [16]	Bliss excess [17]	Bliss excess [18]
CC(=O)c1c(C)c2cnc(Nc3ccc(N4CCNCC4)cn3)nc2n(C2CCCC2)c1=O [Palbociclib] + Cn1cnc2c(F)c(Nc3ccc(Br)cc3Cl)c(C(=O)NOCCO)cc21 [Selumetinib] (first compound max 10 µM, 7x7, partner max 10 µM)	-0.0244	-0.031	-0.0418	-0.0041	0.0127	-0.0273	-0.0259	-0.0449	0.0361	-0.0279	-0.0196	-0.0218	-0.0386	0.0027	-0.0551	0.038	0.0259	0.0823	-0.0264	0.0255
Cn1cnc2c(F)c(Nc3ccc(Br)cc3Cl)c(C(=O)NOCCO)cc21 [Selumetinib] + CCN(CCO)CCCOc1ccc2c(Nc3cc(CC(=O)Nc4cccc(F)c4)[nH]n3)ncnc2c1 [AZD2811] (first compound max 10 µM, 7x7, partner max 1 µM)	0.0552	-0.0628	-0.0419	0.0012	-0.0194	-0.0439	0.0139	-0.0121	0.0645	-0.0288	0.0002	0.0353	0.0288	-0.0274	-0.0289	-0.0104	0.045	0.0048	-0.0059	-0.021
COc1cccc(OCCCN)c1-c1cc(Nc2cnc(C#N)cn2)n[nH]1 [Prexasertib] + C[C@@H]1COCCN1C2=NC(=NC(=C2)C3(CC3)[S@](=N)(=O)C)C4=C5C=CNC5=NC=C4 [AZD6738] (first compound max 1 µM, 7x7, partner max 10 µM)	-0.0519	-0.0061	-0.0233	0.0029	-0.0104	0.0009	-0.0582	-0.0191	0.0056	0.0202	-0.083	0.05	-0.062	0.0067	0.0548	0.0035	-0.0703	-0.0445	0.0846	-0.0567
NC1(C(=O)N[C@@H](CCO)c2ccc(Cl)cc2)CCN(c2ncnc3[nH]ccc23)CC1 [Capivasertib] + CC(=O)c1c(C)c2cnc(Nc3ccc(N4CCNCC4)cn3)nc2n(C2CCCC2)c1=O [Palbociclib] (first compound max 10 µM, 7x7, partner max 10 µM)	-0.0257	-0.0514	-0.0261	-0.0456	-0.0413	-0.0094	-0.0466	-0.0269	-0.0233	-0.0182	-0.0218	-0.0019	-0.0273	0.0051	-0.0562	-0.0236	0.001	-0.0039	-0.0054	-0.048
COc1cccc(OCCCN)c1-c1cc(Nc2cnc(C#N)cn2)n[nH]1 [Prexasertib] + C=CCn1c(=O)c2cnc(Nc3ccc(N4CCN(C)CC4)cc3)nc2n1-c1cccc(C(C)(C)O)n1 [AZD1775] (first compound max 1 µM, partner max 1 µM)	0.085	0.112	-0.0223	0.0404	0.0204	0.0545	-0.0089	0.101	0.0271	0.159	-0.0252	0.124	-0.0138	0.0888	0.105	0.0697	0.211	0.0286	0.0914	-0.0343
NC1(C(=O)N[C@@H](CCO)c2ccc(Cl)cc2)CCN(c2ncnc3[nH]ccc23)CC1 [Capivasertib] + C[C@@H]1COCCN1C2=NC(=NC(=C2)C3(CC3)[S@](=N)(=O)C)C4=C5C=CNC5=NC=C4 [AZD6738] (first compound max 10 µM, 7x7, partner max 10 µM)	-0.0181	-0.027	0.0314	-0.0576	-0.0201	-0.0722	-0.0241	-0.0204	0.0117	-0.0091	-0.0045	-0.0062	-0.0136	-0.0239	-0.072	-0.0305	0.0032	-0.0878	-0.0483	-0.0883
COc1nnc2ccc(N3CCC(c4ccc(OCCN5CCN(C)C(=O)[C@H]5C)cc4)CC3)nn12 [AZD5153] + C[C@@H]1COCCN1C2=NC(=NC(=C2)C3(CC3)[S@](=N)(=O)C)C4=C5C=CNC5=NC=C4 [AZD6738] (first compound max 1 µM, 7x7, partner max 10 µM)	-0.0394	-0.0037	0.0788	-0.0013	-0.0453	-0.0066	-0.0018	0.029	0.0077	0.0769	0.0034	-0.006	0.0096	0.0552	-0.0811	-0.018	-0.0072	-0.0572	0.081	0.0079
NC1(C(=O)N[C@@H](CCO)c2ccc(Cl)cc2)CCN(c2ncnc3[nH]ccc23)CC1 [Capivasertib] + CCN(CCO)CCCOc1ccc2c(Nc3cc(CC(=O)Nc4cccc(F)c4)[nH]n3)ncnc2c1 [AZD2811] (first compound max 10 µM, 7x7, partner max 1 µM)	-0.0148	-0.0891	0.0025	-0.0558	-0.0235	-0.0382	0.0123	-0.0003	0.0026	-0.0327	0.0103	-0.0241	0.0258	-0.0008	-0.103	-0.0086	0.0481	-0.0419	0.0001	-0.0632
COc1cccc(OCCCN)c1-c1cc(Nc2cnc(C#N)cn2)n[nH]1 [Prexasertib] + O=C(c1cc(Cc2n[nH]c(=O)c3ccccc23)ccc1F)N1CCN(C(=O)C2CC2)CC1 [Olaparib] (first compound max 1 µM, 7x7, partner max 10 µM)	0.0165	-0.0381	-0.037	0.0284	-0.0157	-0.0704	-0.0111	-0.0073	-0.0042	0.0276	-0.0837	-0.0209	-0.105	-0.0101	-0.045	-0.0637	-0.0392	0.0051	-0.0185	-0.111
NC1(C(=O)N[C@@H](CCO)c2ccc(Cl)cc2)CCN(c2ncnc3[nH]ccc23)CC1 [Capivasertib] + Cn1cnc2c(F)c(Nc3ccc(Br)cc3Cl)c(C(=O)NOCCO)cc21 [Selumetinib] (first compound max 10 µM, 7x7, partner max 10 µM)	0.0565	-0.0145	0.0509	0.0584	0.0156	-0.0036	0.0122	0.0363	0.0263	-0.0176	-0.0189	-0.0429	-0.0205	0.0344	-0.027	0.119	0.0218	0.0807	-0.0191	-0.0493
COc1nnc2ccc(N3CCC(c4ccc(OCCN5CCN(C)C(=O)[C@H]5C)cc4)CC3)nn12 [AZD5153] + Cn1cnc2c(F)c(Nc3ccc(Br)cc3Cl)c(C(=O)NOCCO)cc21 [Selumetinib] (first compound max 1 µM, 7x7, partner max 10 µM)	-0.0076	-0.0003	-0.0245	-0.0045	0.0188	0.0114	-0.02	-0.0108	0.0397	0.0276	-0.0524	-0.0298	-0.0143	0.0241	-0.0256	-0.0169	-0.0169	0.0093	-0.0123	-0.0391
CC(=O)c1c(C)c2cnc(Nc3ccc(N4CCNCC4)cn3)nc2n(C2CCCC2)c1=O [Palbociclib] + Cc1c2c(nn1C)CSCc1cc(n(C)n1)CSc1cc(c3ccccc3c1)OCCCc1c(C(=O)O)n(C)c3c-2c(Cl)ccc13 [AZD5991] (first compound max 10 µM, 7x7, partner max 1 µM)	-0.0434	-0.0196	-0.0924	-0.0357	-0.0147	-0.0782	-0.0439	-0.0904	-0.112	-0.0751	-0.0191	-0.0101	0.0039	-0.0057	-0.0004	-0.0142	-0.0869	-0.0084	-0.0567	0.0122
CS(=O)(=O)CCNCc1ccc(-c2ccc3ncnc(Nc4ccc(OCc5cccc(F)c5)c(Cl)c4)c3c2)o1 [Lapatinib] + C[C@@H](Oc1cc(-c2cnn(C3CCNCC3)c2)cnc1N)c1c(Cl)ccc(F)c1Cl [Crizotinib] (first compound max 10 µM, 7x7, partner max 10 µM)	-0.0287	-0.118	0.0284	-0.0428	-0.0208	-0.018	-0.0289	-0.0255	0.003	-0.0357	0.0129	0.0028	0.0192	-0.0461	-0.117	-0.0527	0.0477	0.0036	-0.0506	-0.0518

Source: the supplement of paper PMC11061612
